# Source: paper PMC12406203 (Journal of Medicinal Chemistry, 2025)
# Assays:
# LPS-treated mice = experiment: Morris water maze task, LPS model of neuroinflammation; type: in vivo; conditions: 1 mg/kg i.p.
# Procedure: The compounds were administered for 10 consecutive days, and on the last 6 days of their administration, LPS was also administered intraperitoneally 5 h before the test compounds. On these 6 days, the acquisition phase of the MWM task was performed. One day later, the retention, drug-off trial of the MWM task was carried out.
# In the LPS model adult male C57BL/6J mice (Animal Breeding Farm of the Faculty of Pharmacy, Jagiellonian University Medical College) of similar weight and age were used. […] The mice had unlimited access to food and water prior to the experiment. Specified conditions for the maintenance of mice were ensured throughout the experiment, including tree bedding (Transwior, Poland) and cage enrichment (tunnels, nesting material, wooden igloos, etc.). For behavioral tests, the mice were selected randomly; each group consisted of 7–10 mice. […] After in vivo tests, the animals were immediately euthanized, and their tissues were collected and stored for further ex vivo testing.
# LPS (Lipopolysaccharide from Escherichia coli O111:B4, Sigma-Aldrich, Poland) was used to induce neuroinflammation in mice. […] They were administered intraperitoneally (i.p.) 60 min before the acquisition trial of the PA, NOR, and MWM tasks. […] In the rotarod, locomotor activity, and MWM tests, only one dose effective in the scopolamine model of amnesia was evaluated.
# The Morris water maze is a circular, plastic, and gray-painted pool (120 cm in diameter and 60 cm in height), filled with water (up to about 48 cm below the edge to prevent an animal from jumping out), maintained at 23 ± 1 °C. The pool was divided into four equal quadrants (compass locations: NE, NW, SE, SW) by a computerized video tracking system (SMART, ver. 3.0; Panlab, Spain). An escape platform (11 cm in diameter and 47 cm in height) at a fixed location (the center of the NW quadrant, i.e., the target quadrant) was made of transparent Plexiglas, being invisible to the swimming animal, and was immersed 1 cm under the surface of water. The maze was lighted with an intensity of 45 lx. […] The time taken to reach the hidden platform (escape latency) on days 1–6 was recorded for each mouse and analyzed. Each animal was released from a different starting point and was allowed to swim for 60 s. […] On the seventh day (a drug-off trial conducted 24 h after the last training trial), the platform was removed from the pool, and a probe trial was performed (without drug treatmentassessment of memory retention).
# [1] = test system: mice (motor coordination); conditions: already at the dose of 1 mg/kg, as shown previously; cited from earlier work
# [2] = test system: scopolamine-induced cognitive deficits in mice; conditions: scopolamine-induced memory-impaired mice; doses of 1 and 2.5 mg/kg; reported previously; cited from earlier work
# [3] = test system: TLR4, COX-2, NLRP3, cPLA2 levels in brains of LPS-treated mice; experiment: Western blot of brains of LPS-treated mice (ex vivo); type: in vivo; conditions: 94, 95: 10 mg/kg i.p.; rivastigmine 1 mg/kg i.p.; vs LPS-treated control
# Procedure: After the completion of cognitive assays carried out in the LPS model, the mice were sacrificed, and their brains were collected and stored for further analysis. In the ex vivo part of the study, murine brains were homogenized using T-PER mammalian protein extraction reagent (Thermo Fisher Scientific, Waltham, MA, USA) with protease (Merck Millipore, Burlington, MA, USA) and phosphatase inhibitors (Cayman Chemical, Ann Arbor, MI, USA). The total protein concentrations were determined using the Bradford reaction. Forty μg of the total proteins were solubilized in Laemmli buffer with 2% 2-mercaptoethanol and were subject to 10% SDS-polyacrylamide gel electrophoresis. The anticyclooxygenase 2 (COX-2, diluted 1:1000), antitoll-like receptor 4 (TLR4, diluted 1:1000), anticytosolic phospholipase A2 (cPLA2, 1:1000), and anti-inflammasome (NLPR3, diluted 1:500) were used (Thermo Fisher Scientific, Waltham, MA, USA). The endogenous control was β-actin (1:1000) (Thermo Fisher Scientific, Waltham, MA, USA). The secondary antibody was antirabbit IgG (HRP) diluted 1:2000 (Thermo Fisher Scientific, Waltham, MA, USA). Proteins were detected using the Clarity Western ECL Luminol Substrate (Bio-Rad, Hercules, CA, USA). Chemi Doc Camera with Image Lab 6.1 software (Bio-Rad) was used to quantify the integrated optical density of the bands. The results were normalized to the data obtained for β-actin after stripping the PVDF membrane using Restore Western Blot Stripping Buffer (Thermo Fisher Scientific, Waltham, MA, USA) and expressed as relative to the control. This thorough process ensures the validity and reliability of the results.
# [4] = test system: scopolamine-induced cognitive deficits in mice; conditions: 1 and 2.5 mg/kg doses; as shown previously; cited from earlier work
# [5] = PAMPA
# [6] = Pharmacokinetic study in mice
# Procedure: In this study, male CD-1 mice weighing 27–34 g housed in conditions of constant temperature with a 12:12 h light-dark cycle with free access to food and water were used. Both tested and reference compounds were suspended in 1% Tween in water for injection (Polpharma, Poland) and administered intraperitoneally (i.p.). The mice were sacrificed by decapitation under isoflurane anesthesia at different time points following compound administration. Brains were harvested at the same time points. Blood was allowed to clot at room temperature for 20 min, and serum was separated by centrifugation at 8 000g (Eppendorf MiniSpin centrifuge, Germany) for 10 min. All samples were stored at −80 °C until analysis.
# The analytical workflow employed a Sciex QTRAP 4500 triple quadrupole mass spectrometer interfaced with an Exion LC AC HPLC system (Danaher Corporation, USA). Chromatographic separation was achieved on an XBridge C18 column (3 × 50 mm, 5 μm; Waters, USA), utilizing a mobile phase composed of acetonitrile and water both containing 0.1% formic acid. The column temperature was maintained at 40 °C, and a gradient elution protocol (Table S10) was implemented to ensure optimal analyte resolution and retention times. Mass spectrometric detection was conducted in unit resolution mode, with ion transitions specified in Table S11. […] Valsartan served as the internal standard and was monitored at m/z 436 → 207 (collision energy = 42 eV). Positive electrospray ionization (ESI+) was employed to enhance detection sensitivity. Ion path parameters (Table S11) were optimized via direct infusion of analyte solutions (7 μL/min) using a syringe pump. The optimized source conditions included an ion spray voltage of 5500 V, a source temperature of 450 °C, curtain gas pressure at 20 psi, and medium collision gas pressure. […] No significant matrix effects or stability concerns were observed during routine sample analysis. Data acquisition and processing were carried out using Analyst software version 1.7.
# Serial dilutions were performed to generate working solutions ranging from 0.01 to 20 μg/mL, corresponding to final calibration concentrations of 0.001–2 μg/mL. For calibration curve construction, 5 μL of each working solution was spiked into 45 μL of the relevant biological matrix (serum or brain homogenate) and vortexed for 10 s. Sample preparation involved protein precipitation, in a 1:3 (v/v) ratio, using acetonitrile containing 0.1% formic acid and the internal standard. The mixtures were agitated for 10 min using an IKA Vibrax VXR shaker (Germany), followed by centrifugation at 8000 × g for 5 min (Eppendorf miniSpin, Germany). The resulting supernatants were transferred to chromatographic vials for analysis.
# Brain tissues were homogenized in distilled water at a 1:4 (w/v) ratio using an ULTRA-TURRAX T10 basic homogenizer (IKA, Germany). Aliquots of brain homogenate or serum (50 μL) were subjected to protein precipitation in a 1:3 (v/v) ratio with acetonitrile containing 0.1% formic acid and the internal standard. The mixtures were agitated for 10 min using an IKA Vibrax VXR shaker (Germany), followed by centrifugation at 8000 × g for 5 min (Eppendorf miniSpin, Germany). The resulting supernatants were directly transferred to chromatographic vials for analysis. In cases where analyte concentrations in serum exceeded 20 μg/mL, samples were diluted with blank matrix prior to the deproteinization step. The autosampler was maintained at 15 °C, and a 1 μL aliquot was injected onto the analytical column.
# Pharmacokinetic parameters were estimated using the noncompartmental analysis (NCA). The maximum concentration (C max) and the time to reach maximum concentration (t max) in serum and brain were obtained directly from the concentration versus time data.
# [7] = brain, rivastigmine 2.5 mg/kg i.p., mice
# [8] = male, CD-1, mouse, brain, ip, 2.5 mg/kg
# [9] = male, CD-1, mouse, serum, ip, 2.5 mg/kg
smiles,measurement,setting,value
"CCN(C)C(=O)Oc1cccc([C@H](C)N(C)C)c1 [rivastigmine, reference compound]",efficacy in the LPS model of neuroinflammation accompanied by memory decline,LPS-treated mice,not effective
same,"escape latency, acquisition phase of MWM","LPS-treated mice; vs LPS-treated control, transient, not on days 4–6",statistically significantly lower escape latencies were observed on day 3
same,motor side effects shortly after administration,[1],caused muscle tremor and transient motor coordination deficits
same,procognitive efficacy in PA task,[2],procognitive activity
same,brain cPLA2 expression,[3],no difference
same,"brain levels of TLR4, COX-2, and NLRP3",[3],significantly lower levels
same,efficacy in PA and NOR tasks,[4],effective
same,CNS (+/–),[5],CNS+ (key: CNS+ indicates high predicted BBB permeation [Pe (×10–6 cm/s) > 4.0]; CNS– indicates low predicted BBB permeation [Pe (×10–6 cm/s) < 2.0])
same,AUC0-∞,[6]; [7],12082.71 ng·min/mL(g)
same,AUC(0-t),[6]; [7],11678.40 ng·min/mL(g)
same,t0.5λz,[6]; [7],32.64 min
same,Cmax,[6]; [8],609 ng/g
same,MRT,[6]; [8],26.6 min
same,Tmax,[6]; [8],5 min
same,k el,[6]; [8],0.00035 s⁻¹
same,Kp,"[6]; male, CD-1, mouse, brain/serum, ip, 2.5 mg/kg",4.16
same,half-life,"[6]; male, CD-1, mouse, serum and brain, ip, 2.5 mg/kg",~30 min
same,AUC(0-inf),[6]; [9],48.4 ng·h/mL
same,AUC(0-t),[6]; [9],46.8 ng·h/mL
same,CL/F,[6]; [9],860 mL/min/kg
same,Cmax,[6]; [9],142 ng/mL
same,MRT,[6]; [9],27.8 min
same,Tmax,[6]; [9],5 min
same,Vd/F,[6]; [9],37.2 L/kg
same,k el,[6]; [9],0.000383 s⁻¹
same,t0.5λz,"[6]; serum, rivastigmine 2.5 mg/kg i.p., mice",29.99 min
